≈ marks a conversion by molar mass, not a printed value.
Legend:
[1] = Determination of stability against human liver microsomes; type: in vitro ADME; conditions: human liver microsomes 1 mg protein/mL, 2 mM NADPH, pH 7.4, 37 C; read-out: Stability against human liver microsome NADPH+ T1/2
Method: (§1) The enzyme reaction was quenched with three volumes of acetonitrile, and the reaction mixture was centrifuged at 1,500 rpm for ten minutes to provide a supernatant as a sample to be measured. Stability against human liver microsomes was measured using HPLC/MS to determine the compounds in the sample.

MEK = MEK (Homo sapiens, UniProt Q02750); assay: Determination of MEK inhibitory activities (Raf-1 kinase cascade assay, MBP phosphorylation, 33P-ATP)
Sequence of MEK (Q02750 whole entry): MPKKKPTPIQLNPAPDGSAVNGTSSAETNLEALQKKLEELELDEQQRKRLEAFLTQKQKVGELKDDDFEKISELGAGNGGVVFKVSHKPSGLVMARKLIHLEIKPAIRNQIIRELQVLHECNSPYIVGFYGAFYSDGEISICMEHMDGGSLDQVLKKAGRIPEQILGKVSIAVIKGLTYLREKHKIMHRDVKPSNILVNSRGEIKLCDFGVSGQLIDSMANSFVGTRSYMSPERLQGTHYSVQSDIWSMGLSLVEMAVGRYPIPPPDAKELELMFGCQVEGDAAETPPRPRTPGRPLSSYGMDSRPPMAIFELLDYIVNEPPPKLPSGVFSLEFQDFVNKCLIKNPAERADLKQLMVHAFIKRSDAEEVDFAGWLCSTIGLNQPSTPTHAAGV
Text: The radioisotope used was [γ^33P]-ATP (Amersham Biosciences, K.K.).

[2] = Determination of stability against mouse liver microsomes; type: in vitro ADME; conditions: mouse liver microsomes 1 mg protein/mL, 2 mM NADPH, pH 7.4, 37 C; read-out: Stability against mouse liver microsome NADPH+ T1/2
Method: as §1, with “mouse” for “human”

[3] = Determination of water solubility (equilibrium stirring method); type: physicochemical; conditions: 50 mM phosphate buffer pH 6.5, room temperature (20 C); for solubility at 2 h: aqueous buffer, thermodynamic from solid, read-out: Water solubility (LySA PH 6.5)
Method: The vessels were sealed, and the contents were sonicated at room temperature (20° C.) for ten minutes, and then stirred with a stirrer for two hours. After reaching solution equilibrium, the solution was separated with a membrane filter, and the solute concentration was determined using HPLC.

[4] = system: Human colon cancer cell line HT-29; assay: Determination of the activity of inhibiting cell proliferation (Cell Counting Kit-8); type: cell-based; conditions: HT-29, 96 h, HT29, 2,000 cells/well, incubated four days, read-out: Cell proliferation inhibitory activity (HT29) IC50
Method: Human colon cancer cell line HT-29, obtained from American Type Culture Collection (VA, USA), and human non-small cell lung cancer cell line QG56, obtained from Immuno-Biological Laboratories Co., Ltd., were plated at 2,000 cells/well in a 96-well culture plate, and incubated for four days after addition of a MEK inhibitor of a given concentration.

Compound | half-life [1] | IC50 (MEK) | half-life [2] | solubility at 2 h [3] | IC50 [4] | Water solubility (LySA PH 6.5) [3]
C#Cc1ccc(Nc2c(C(=O)NOCCO)cc(/C=N/OCCC(=O)NC)c(F)c2F)c(F)c1 [Compound 41, (E)-2-(4-ethynyl-2-fluoro-phenylamino)-3,4-difluoro-N-(2-hydroxy-ethoxy)-5-[(2-methylcarbamoyl-ethoxyimino)-methyl]-benzamide] | > 6 h | 64.7 nM | 3.54 h | 347 µM (≈ 166 µg/mL) | 186 nM | 
CN(C)C(=O)CCO/N=C/c1cc(C(=O)NOCCO)c(Nc2ccc(I)cc2F)c(F)c1F [Compound 42, (E)-3,4-difluoro-2-(2-fluoro-4-iodo-phenylamino)-N-(2-hydroxy-ethoxy)-5-[dimethylcarbamoylethoxyimino-methyl]-benzamide] | 1.74 h | 56 nM | > 6 h | 29 µM (≈ 17.2 µg/mL) | 91 nM | 
CNC(=O)CO/N=C/c1cc(C(=O)NOCCO)c(Nc2ccc(I)cc2F)c(F)c1F [Compound 43, (E)-3,4-difluoro-2-(2-fluoro-4-iodo-phenylamino)-N-(2-hydroxy-ethoxy)-5-[methylcarbamoylmethoxyimino-methyl]-benzamide] | > 6 h | 119 nM | > 6 h | 57 µM (≈ 32.3 µg/mL) | 77 nM | 
O=C(CO/N=C/c1cc(C(=O)NOCCO)c(Nc2ccc(I)cc2F)c(F)c1F)NCCO [Compound 45, (E)-3,4-difluoro-2-(2-fluoro-4-iodo-phenylamino)-N-(2-hydroxy-ethoxy)-5-{[(2-hydroxyethylcarbamoyl)-methoxyimino]-methyl}-benzamide] | > 6 h | 267 nM | 2.15 h | 73 µM (≈ 43.5 µg/mL) | 196 nM | 
CS(=O)(=O)NCCO/N=C/c1cc(C(=O)NOCCO)c(Nc2ccc(I)cc2F)c(F)c1F [Compound 47, (E)-3,4-difluoro-2-(2-fluoro-4-iodo-phenylamino)-N-(2-hydroxy-ethoxy)-5-[(2-methanesulfonylamino-ethoxyimino)-methyl]-benzamide] | > 6 h | 209 nM | > 6 h | 11 µM (≈ 6.78 µg/mL) | 138 nM | 
C#Cc1ccc(Nc2c(C(=O)NOCCO)cc(/C=N\OCCO)c(F)c2F)c(F)c1 [Compound 48, (Z)-2-(4-ethynyl-2-fluoro-phenylamino)-3,4-difluoro-N-(2-hydroxy-ethoxy)-5-[(2-hydroxy-ethoxyimino)-methyl]-benzamide] | 0.603 h | 51 nM | 2.03 h | 301 µM (≈ 132 µg/mL) | 13 nM | 
O=C(NOCCO)c1cc(/C=N\OCCO)c(F)c(F)c1Nc1ccc(I)cc1F [Compound 49, (Z)-3,4-difluoro-2-(2-fluoro-4-iodo-phenylamino)-N-(2-hydroxy-ethoxy)-5-[(2-hydroxy-ethoxyimino)-methyl]-benzamide] | > 6 h | 31 nM | > 6 h |  | 4.8 nM | 75 µM

These reach a lower IC50 (MEK). Values come first.

half-life [1] | IC50 (MEK) | half-life [2] | solubility at 2 h [3] | IC50 [4] | Water solubility (LySA PH 6.5) [3] | Compound
> 6 h | 25 nM | > 6 h | 6 µM (≈ 3.57 µg/mL) | 328 nM |  | CNC(=O)CCCO/N=C/c1cc(C(=O)NOCCO)c(Nc2ccc(I)cc2F)c(F)c1F [Compound 44]
> 6 h | 15 nM | > 6 h | 175 µM (≈ 99.6 µg/mL) | 5.8 nM |  | O=C(NOCCO)c1cc(/C=N\OCC(O)CO)c(F)c(F)c1Nc1ccc(I)cc1F (stereo not drawn) [Compound 52, (dl)-(Z)-5-[(2,3-Dihydroxy-propoxyimino)-methyl]-3,4-difluoro-2-(2-fluoro-4-iodo-phenylamino)-N-(2-hydroxy-ethoxy)-benzamide]
> 6 h | 21 nM | > 6 h | 20 µM (≈ 11.6 µg/mL) | 6.5 nM |  | CC(=O)NCCO/N=C\c1cc(C(=O)NOCCO)c(Nc2ccc(I)cc2F)c(F)c1F [Compound 54, (Z)-5-[(2-Acetylamino-ethoxyimino)-methyl]-3,4-difluoro-2-(2-fluoro-4-iodo-phenylamino)-N-(2-hydroxy-ethoxy)-benzamide]
